A melting point compilation (Tetko et al.; mined from patent text by program, amines drawn as free bases though some values may be those of a salt)

SMILES	melting point [°C]
CCN(CC)C(=O)C(Cl)=C(Cl)C(=O)O	154 to 155
O=C1Nc2ccccc2SC[C@@H]1N1C(=O)c2ccccc2C1=O	202 to 205
CS(=O)(=O)c1ccc2[nH]c(=O)c(C#N)cc2c1	> 310
O=C1C2=C(Nc3ccccc3C2)c2ccccc21	> 300
COc1cc2c(-c3ccnc(Cl)c3)c(CO)c(CO)cc2cc1OC(C)C	129 to 131
CC(C)Oc1ccc2c(c1)N(C)C(=O)N(c1ccc(Cl)cc1)S2(=O)=O	157 to 159
COc1cc(COc2nn(Cc3ccccc3)cc2CO)ccc1OCc1nc(-c2ccccc2)oc1C	90 to 91
Cc1oc(-c2ccccc2)nc1COc1ccc(Cn2cc(CCC(=O)O)c(-c3cccs3)n2)cc1	172 to 173
CCCCc1nc(SC)c(C(C)(O)C(=O)O)n1Cc1ccc(-c2ccccc2S(=O)(=O)NC(=O)OCc2ccccc2)cc1 (configuration not stated)	140 to 150
CCC(n1cncn1)C(O)(Cn1cncn1)c1c(F)cccc1F (configuration not stated)	110 to 111
CC(=O)Oc1c(Cl)nc(-c2ccccc2)nc1Cl	145 to 147
O=C(COc1ccc([N+](=O)[O-])cc1)NCc1ccccc1	125 to 126
Cc1ccc2nc(-c3ccccc3)c(-c3ccccc3)nc2c1	114 to 116
CCOC(=O)c1c2ccc(Cl)cc2c(-c2ccccc2)n1CCN	84 to 86
CCCc1nc2c(N)nc3ccccc3c2n1CCCC1(O)CCCCC1	200 to 202
O=C(O)CC/C=C/c1nn(-c2ccccc2)c2c1CCC2	122 to 125
O=c1nc(N2CCN(Cc3ccccc3)CC2)sc2c([N+](=O)[O-])cc(C(F)(F)F)cc12	161 to 163
OC(CCN1CC=C(c2ccc(Cl)cc2)CC1)c1cccc2ccccc12 (configuration not stated)	122 to 123
CC(=O)NNC(=O)N(O)C1c2ccccc2Oc2ccccc21	173 to 176
CCOC(=O)C(C)=NNc1ccc(F)c(Cl)c1	89 to 91
C=CCn1c(C)c(C)c2cnnc(OCc3ccc(F)cc3)c21	125 to 126
CCCCOCCOc1ccc(-c2ccc3c(c2)C=C(C(=O)Nc2ccc(CSc4nncs4)cc2)CCN3CC(C)C)cc1	77 to 79
COc1ccc2[nH]c(SCc3nccc(N4CCCCC4)c3Cl)nc2c1	145 to 147
O=C(O)c1ccc(Cl)cc1Sc1ccc(F)cc1	204 to 213
O=C(O)c1ccccc1S(=O)c1cc(Cl)ccc1C(=O)O (configuration not stated)	279 to 281
C=CC1CN(c2ncc(C(=O)N(C)c3cccc(C(F)(F)F)c3)c(N)n2)C(=O)N1 (configuration not stated)	203 to 204

SMILES	melting point [°C]
OC1CSC(Oc2cc(-c3ccncc3)cc(F)c2F)C(O)C1O (configuration not stated)	151
O=C1c2ccccc2C(=O)N1CCCn1cc(S(=O)(=O)c2ccccc2)c2ccccc21	205 to 206
C#CCc1c(O)nc(C)nc1O	> 300
O=C(CC(F)(F)F)NC[C@H]1CN(c2ccc3c(c2)CCCc2cn[nH]c2-3)C(=O)O1	243 to 245
CN(Cc1ccc(F)cc1)C1CCN(c2ccc([N+](=O)[O-])cc2)CC1	89 to 90
Cc1cc(-c2cc(C(F)(F)F)n3ncc(-c4ccnc(CO)c4)c3n2)ccc1C(F)(F)F	231
O=CN1CCc2cc(O)ccc2C1	186
COCc1cccc(Cl)c1NC(=O)CC1c2ccccc2Oc2ccccc21	184 to 185
CCOc1cnc(-c2cc(Cl)c(OC)c3ccccc23)s1	67 to 68
COc1cccc(N2CCC(C(N)=O)CC2)c1	153 to 156
CC(=O)O[C@H]1CC[C@H](c2ccc(C#N)cc2)CC1	130 to 131
Oc1ccccc1C=NC1=NN(c2cnc3ccccc3c2)CC1	288 to 289
O=[N+]([O-])c1nccn1C1CCCC1O (configuration not stated)	109
Cc1ccc(F)c(-c2cncc(OC3SCC(O)C(O)C3O)c2)c1 (configuration not stated)	198
COc1c(F)cccc1OCCN1C(=O)c2ccccc2C1=O	112 to 113
Nc1ccc(CCC(=O)c2ccc(F)cc2)cc1	54 to 55
Nc1ccc(NCCO)c(C(F)(F)F)c1	74 to 75
COC(=O)C(Oc1ccc(C(F)(F)F)cc1)c1ccc(OCCCOc2ccc(Cl)cc2)cc1 (configuration not stated)	83 to 84
Fc1cccc(F)c1C1=NC(c2ccc(C#Cc3ccc(Cl)cc3)cc2)CO1 (configuration not stated)	155 to 156
COc1cccc(CCCC(=O)O)c1OC	58 to 59
N#Cc1cc(Cc2ccc(F)cc2)ccc1N	105 to 107
CC(C)c1ccc(S(=O)(=O)O)cc1	35.2 to 36.7
COc1cc(C(=O)c2ccc(C(F)(F)F)cc2)cc(C#N)c1OC	130
CC(=O)OC(c1ccc(OCc2ccccc2)cc1)C(F)(F)F (configuration not stated)	85 to 87
CC(C)NC(=S)Nc1nc2ccc(OC(F)(F)F)cc2s1	242
CC(=O)Nc1cc([N+](=O)[O-])c(Cl)cc1F	125 to 126

SMILES	melting point [°C]
CC(C)(C)C(=O)c1ccc(C(Br)Br)cc1	65 to 68
COc1cc(OC)nc(Sc2ncccc2C(=O)O)n1	165 to 168
CC(COc1ccc(CC2SC(=O)NC2=O)cc1)NCC(O)COc1ccccc1 (configuration not stated)	64 to 68
COc1ccc(S(=O)(=O)Nc2cccnc2Nc2cccc(OC)c2)cc1	161 to 162
Brc1ccc(Br)c2nsnc12	181 to 183
CN1C(=O)[C@H](NC(=O)CCCc2cccs2)N=C(c2ccccc2)c2ccccc21	170 to 180
COc1cc2c(cc1Br)CC=C2CCNC(=O)C(F)(F)F	126 to 129
CCCCCCCCCCCCCCOc1ccccc1NC(=O)c1cc(Sc2nnnn2-c2cccc(C(=O)OCC)c2)c2ccccc2c1O	88 to 90
CCOC(=O)COc1c(C(=O)OC)cc(Cl)cc1[N+](=O)[O-]	68 to 70
CCCn1c(=O)n(C)c(=O)c2[nH]c(-c3cc(S(=O)(=O)NCCNC)ccc3OCC)c(Cl)c21	226
CNC(=O)c1ccccc1Nc1nc(Nc2ccc3c(c2)C(C)(C)CCC(=O)N3)ncc1Cl	295
COc1cccc(OCCO)c1-c1ccc(C[C@H](NC(=O)c2c(Cl)cccc2Cl)C(=O)O)cc1	158 to 159
O=C(NS(=O)(=O)c1ccc(Cl)cc1)C1=NN(c2ccc(Cl)cc2)C(c2ccccc2)C1 (configuration not stated)	226 to 229
Cn1cc(Br)cc(Nc2ccn(CCO[Si](C)(C)C(C)(C)C)n2)c1=O	96 to 97
CN1CCN(c2ncccc2OC2CCN(c3ccc(C4CCOCC4)cc3)C2=O)CC1 (configuration not stated)	219 to 248
CCOc1ccc(-c2nnc(Nc3ccc(Br)c(Cl)c3)s2)cc1	225 to 226
Cn1ncnc1COc1nn2c(-c3ccccc3F)nncc2c1-c1cccc(C(F)(F)F)c1	152 to 155
CCNc1ccc(C2(C)C(=O)Nc3cc(Cl)cc(Cl)c3C2=O)cc1 (configuration not stated)	197 to 198
FC(F)(F)c1ccc(-c2ncc(-c3cccs3)s2)cc1	154 to 155
CCCN(CCCc1c[nH]c2ccc(F)cc12)C1COc2c(F)ccc(C(=O)NC)c2C1 (configuration not stated)	123
COc1ccc2c(c1)C(=O)CC1C2C(OC(=O)C(C)(C)C)CC2(C)C(OC(=O)C(C)(C)C)CCC12 (configuration not stated)	183 to 184
CCCCCCCCCCCCCCCCC(C(=O)OC)S(C)=O (configuration not stated)	56 to 57
CN(C)C(=O)C(C1CCCCC1)n1ccc(-c2ccccc2)n1 (configuration not stated)	87.5 to 90
CC(=O)N1c2ccc(-c3ccc(C(=O)O)cc3)cc2[C@H](Nc2ccc(Cl)cc2)C[C@@H]1C	275
CC(=O)c1csc(-c2nc3n(c2-c2ccncc2)CCC3)c1	152 to 154
C[C@H]1Oc2cccc(F)c2N(C)C(=O)[C@H]1NC(=O)OC(C)(C)C	130 to 138

SMILES	melting point [°C]
COc1ccccc1-c1nc(N)c(C#N)nc1-c1ccc(=O)n(C(C)C)c1	223
CCCc1sc(NC(=O)C2CCCCC2)c(C#N)c1OC	146 to 147
CC(=O)SCC(Cc1ccccc1)C(=O)Nc1cc(C)cc(C(=O)O)c1C (configuration not stated)	182 to 186
CSc1ccc(C(=O)CBr)cc1F	70 to 71
CC(=O)c1c(-c2ccncc2)[nH]c(-c2ccccc2)c1C	208 to 209
Nc1ccccc1-c1cc[nH]n1	122 to 123
COc1ccccc1N1CCN(CCCCN2CCN(c3cccc(Cl)c3)C2=O)CC1	87 to 89
COC(=O)C(O)C(=O)C(C)Oc1ccc(Oc2nc3ccc(Cl)cc3s2)cc1 (configuration not stated)	104 to 106
Cc1oc2ccc(O)cc2c(=O)c1Cc1cccc(NS(=O)(=O)C(F)(F)F)c1	232 to 234
O=C(O)c1cc(Cl)nn1-c1ncccc1Cl	198 to 199
COc1ccc2cc(C=NNC(N)=O)ccc2c1	218 to 219
CC(=O)Nc1ccc(Oc2c([N+](=O)[O-])cc(C(=O)O)cc2S(N)(=O)=O)cc1	305
Cc1ccc2sc3ncc(C(=O)Nc4nnn[nH]4)c(=O)n3c2c1	> 300
CCOC(C)c1ccc(OCCCN2CCC(c3noc4cc(F)ccc34)CC2)c(OC)c1 (configuration not stated)	139
N#CCOc1cccc2[nH]c3ccccc3c12	120
Cn1c(C(F)(F)F)cc2ccccc21	28 to 32
CCNc1nc(Nc2ccccc2C)c2ccccc2n1	127 to 129
CNC(=O)c1cc(-c2ccc(OC)c(Cl)c2)nn(CC2CC2)c1=O	172 to 173
c1cncc(-c2nc3ncccc3[nH]2)c1	133 to 135
CCCN(CCC)C1Cc2cccc(C(=O)O)c2NC1=O (configuration not stated)	214 to 217
CC(C)N(c1ccc(C(=O)Oc2ccccc2)c(Cl)c1)S(=O)(=O)c1ccccc1	120
O=C(Nc1cccc(F)c1)c1cccc(Oc2cccc(C(F)(F)F)c2)n1	74 to 75
Cc1cc2c(cc1C)N(C)Cc1cscc1N2	121 to 125
CC1(C)CCN(Cc2ccc(COc3cccc4c3CN(C3CCC(=O)NC3=O)C4=O)cc2)CC1 (configuration not stated)	168 to 170
